From article PMC10526139, “Molecular and Pharmacokinetic Aspects of the Acetylcholinesterase-Inhibitory Potential of the Oleanane-Type Triterpenes and Their Glycosides” (Biomolecules, 2023)

Tested on: AChE
Test: not given
Conditions: AChE inhibition; cited from earlier work

Compound | IC50 [µM]
C[C@H]1[C@H](C)CC[C@]2(C(=O)O)CC[C@]3(C)C(=CC[C@@H]4[C@@]5(C)C[C@@H](O)[C@H](O)[C@@](C)(CO)[C@@H]5CC[C@]43C)[C@H]12 [asiatic acid] | 15.05 ± 0.05

Biological target: T1, AChE from electric eel type VI-S (Electrophorus electricus, UniProt O42275)
T1 construct: purchased Sigma Aldrich
Test: TLC-bioautography assay towards AChE inhibition
Assay type: biochemical
Conditions: not given
Experimental: Six standards of oleanane-type triterpenes: arjunic acid, arjunolic acid, arjungenin, arjunglucoside I, sericic acid and arjunetin—purchased from Sigma Aldrich (St. Louis, MO, USA)—were prepared at the concentration of 1 mg/mL in double-distilled water: methanol (50:50 v/v) and they were applied separately at the surface of the aluminum normal phase 10 cm × 10 cm TLC plate (Silica gel 60 F254, Merck, Darmstadt, Germany) with an autosampler (Camag, Muttenz, Switzerland) as the 6 mm zones, distant from one another by 1.5 cm horizontally and 2 cm vertically. Every reference solution was applied as 4, 6, 8 and 10 µL volume bands on three TLC plates.
The TLC plates were later subjected to the enzymatic assay according to the previously published protocol, with some modifications.
As the TLC plate was not developed in a TLC solvent system but was used directly in the TLC bioautographic assay, the authors modified the previously published protocol and sprayed the TLC with the substrate (2-naphtyl acetate; Sigma Aldrich, St. Louis, […], USA) dissolved in distilled water at the quantity of 30 mg/20 mL. The TLC was dried in cold air and later the solution of the AChE enzyme (AChE from electric eel type VI-S, Sigma Aldrich, St. Louis, […], USA) dissolved in the aqueous solution of Tris-HCl buffer (pH 7.8; Sigma Aldrich, St. Louis, […], USA) with […] (500 mg/100 mL, Sigma Aldrich, St. Louis, […], USA) at the quantity of 3 U/mL was sprayed on the TLC plate and incubated at the temperature of 37 °C for the following 20 min in a humid incubator. In the next step, the Fast Blue B (Sigma Aldrich, St. Louis, […], USA) solution (0.615 mg/mL) was sprayed on the plate and visualized active zones as white spots against the violet background. The area of the discolored zones corresponded to the inhibitory strength of the respective zones.
Finally, the TLC plate was dried in the air and analyzed by a Camag TLC visualizer (Camag, Muttenz, Switzerland) under visible light. The peak areas of the discolored zones were automatically calculated by the WinCats program (version 1.4, Camag, Muttenz, Switzerland) and their size was compared to calculate the IC50 values that corresponded to the concentration of the standard giving the half maximum inhibition of the AChE enzyme.

T1 sequence (O42275 24-633): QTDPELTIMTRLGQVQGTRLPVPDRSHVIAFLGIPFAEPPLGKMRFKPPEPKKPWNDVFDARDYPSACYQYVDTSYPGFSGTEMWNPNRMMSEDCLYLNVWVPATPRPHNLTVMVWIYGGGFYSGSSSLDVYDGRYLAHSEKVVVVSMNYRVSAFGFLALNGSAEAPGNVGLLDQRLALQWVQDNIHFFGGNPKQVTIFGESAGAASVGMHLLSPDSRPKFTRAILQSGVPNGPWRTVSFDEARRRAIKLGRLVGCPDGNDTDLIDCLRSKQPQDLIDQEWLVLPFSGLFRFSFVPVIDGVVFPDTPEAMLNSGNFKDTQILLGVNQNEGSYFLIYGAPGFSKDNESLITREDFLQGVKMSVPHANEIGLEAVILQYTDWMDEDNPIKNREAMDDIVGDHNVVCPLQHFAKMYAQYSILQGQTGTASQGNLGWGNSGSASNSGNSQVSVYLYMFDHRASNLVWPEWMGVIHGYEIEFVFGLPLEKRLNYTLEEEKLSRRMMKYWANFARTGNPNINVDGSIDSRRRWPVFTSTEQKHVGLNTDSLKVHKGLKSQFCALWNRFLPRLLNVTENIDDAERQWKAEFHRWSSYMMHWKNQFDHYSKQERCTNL

Compound | IC50 [µM]
CC1(C)CC[C@]2(C(=O)O)CC[C@]3(C)C(=CC[C@@H]4[C@@]5(C)C[C@@H](O)[C@H](O)[C@@](C)(CO)[C@@H]5CC[C@]43C)[C@@H]2C1 [Arjunolic acid] | 16.2
CC1(C)CC[C@]2(C(=O)O[C@@H]3O[C@H](CO)[C@@H](O)[C@H](O)[C@H]3O)CC[C@]3(C)C(=CC[C@@H]4[C@@]5(C)C[C@@H](O)[C@H](O)C(C)(C)[C@@H]5CC[C@]43C)[C@@H]2[C@@H]1O [Arjunetin] | 18.8
CC1(C)CC[C@]2(C(=O)O[C@@H]3O[C@H](CO)[C@@H](O)[C@H](O)[C@H]3O)CC[C@]3(C)C(=CC[C@@H]4[C@@]5(C)C[C@@H](O)[C@H](O)[C@@](C)(CO)[C@@H]5CC[C@]43C)[C@@H]2[C@@H]1O [Arjunglucoside I] | 13.2
CC1(C)CC[C@]2(C(=O)O)CC[C@]3(C)C(=CC[C@@H]4[C@@]5(C)C[C@@H](O)[C@H](O)C(C)(C)[C@@H]5CC[C@]43C)[C@@H]2[C@@H]1O [Arjunic acid] | 20.7
CC1(C)CC[C@]2(C(=O)O)CC[C@]3(C)C(=CC[C@@H]4[C@@]5(C)C[C@@H](O)[C@H](O)[C@](C)(CO)[C@@H]5CC[C@]43C)[C@@H]2[C@@H]1O [Sericic acid] | 16.4
CC1(C)CC[C@]2(C(=O)O)CC[C@]3(C)C(=CC[C@@H]4[C@@]5(C)C[C@@H](O)[C@H](O)[C@@](C)(CO)[C@@H]5CC[C@]43C)[C@@H]2[C@@H]1O [Arjungenin] | 19.5
